≈ marks a conversion by molar mass, not a printed value.
What was measured:
Aspergillus flavus [1] = experiment: Antifungal activity against Aspergillus flavus NCIM 524 assessed as growth inhibition at […] to […] ug/ml after 3 to 4 days by agar well diffusion method; assay type: functional
[2] = test system: Mycobacterium tuberculosis; experiment: Antitubercular activity against Mycobacterium tuberculosis H37Rv ATCC 27294 assessed as growth inhibition at 0.3125 to 5 ug/mL after 7 days by resazurin reduction test; assay type: functional; conditions: H37Rv ATCC 27294, 168 h
Escherichia coli [3] = assay type: functional, ATCC 24922
Description: Antibacterial activity against Escherichia coli ATCC 24922 assessed as growth inhibition at 1.56 to 25 ug/ml after 3 to 4 days by agar well diffusion method

Aspergillus fumigatus [4] = experiment: Antifungal activity against Aspergillus fumigatus NCIM 902 assessed as growth inhibition at […] to […] ug/ml after 3 to 4 days by agar well diffusion method; assay type: functional
Aspergillus flavus [5] = experiment: Antifungal activity against Aspergillus flavus NCIM 524 assessed as growth inhibition after 3 to 4 days by serial plate dilution method; assay type: functional
Talaromyces marneffei [6] = experiment: Antifungal activity against Talaromyces marneffei assessed as growth inhibition after 3 to 4 days by serial plate dilution method; assay type: functional
[7] = test system: Mycolicibacterium fortuitum; experiment: Antitubercular activity against Mycobacterium fortuitum ATCC 19542 assessed as growth inhibition at 1 to 100 ug/mL after 7 days by resazurin reduction test; assay type: functional; conditions: ATCC 19542, 168 h
[8] = test system: Mycolicibacterium smegmatis; experiment: Antitubercular activity against Mycobacterium smegmatis ATCC 19420 assessed as growth inhibition at 0.3125 to 5 ug/mL after 7 days by resazurin reduction test; assay type: functional; conditions: ATCC 19420, 168 h
Klebsiella pneumoniae [9] = experiment: Antibacterial activity against Klebsiella pneumoniae assessed as growth inhibition after 16 to 18 hr by serial plate dilution method; assay type: functional
Aspergillus fumigatus [10] = experiment: Antifungal activity against Aspergillus fumigatus NCIM 902 assessed as growth inhibition after 3 to 4 days by serial plate dilution method; assay type: functional
Pseudomonas aeruginosa [11] = experiment: Antibacterial activity against Pseudomonas aeruginosa ATCC 27853 assessed as growth inhibition after 16 to 18 hr by serial plate dilution method; assay type: functional
[12] = test system: Mycolicibacterium fortuitum; experiment: Antitubercular activity against Mycobacterium fortuitum ATCC 19542 assessed as growth inhibition at 0.3125 to 5 ug/mL after 7 days by resazurin reduction test; assay type: functional; conditions: ATCC 19542, 168 h
[13] = test system: Trichophyton mentagrophytes; experiment: Antifungal activity against Trichophyton mentagrophytes assessed as growth inhibition after 3 to 4 days by serial plate dilution method; assay type: functional
Talaromyces marneffei [14] = experiment: Antifungal activity against Talaromyces marneffei assessed as growth inhibition at […] to […] ug/ml after 3 to 4 days by agar well diffusion method; assay type: functional
Streptococcus pyogenes [15] = assay type: functional
Description: Antibacterial activity against Streptococcus pyogenes assessed as growth inhibition at 1.56 to 25 ug/ml after 3 to 4 days by agar well diffusion method

[16] = test system: Trichophyton mentagrophytes; experiment: Antifungal activity against Trichophyton mentagrophytes assessed as growth inhibition at […] to […] ug/ml after 3 to 4 days by agar well diffusion method; assay type: functional
Staphylococcus aureus [17] = assay type: functional, ATCC 25923
Description: Antibacterial activity against Staphylococcus aureus ATCC 25923 assessed as growth inhibition at 1.56 to 25 ug/ml after 3 to 4 days by agar well diffusion method

Candida albicans [18] = experiment: Antifungal activity against Candida albicans assessed as growth inhibition after 3 to 4 days by serial plate dilution method; assay type: functional
Candida albicans [19] = experiment: Antifungal activity against Candida albicans assessed as growth inhibition at […] to […] ug/ml after 3 to 4 days by agar well diffusion method; assay type: functional
Pseudomonas aeruginosa [20] = assay type: functional, ATCC 27853
Description: Antibacterial activity against Pseudomonas aeruginosa ATCC 27853 assessed as growth inhibition at 1.56 to 25 ug/ml after 3 to 4 days by agar well diffusion method

Streptococcus pyogenes [21] = experiment: Antibacterial activity against Streptococcus pyogenes assessed as growth inhibition after 16 to 18 hr by serial plate dilution method; assay type: functional
Klebsiella pneumoniae [22] = assay type: functional
Description: Antibacterial activity against Klebsiella pneumoniae assessed as growth inhibition at 1.56 to 25 ug/ml after 3 to 4 days by agar well diffusion method

[23] = test system: Mycolicibacterium smegmatis; experiment: Antitubercular activity against Mycobacterium smegmatis ATCC 19420 assessed as growth inhibition at 1 to 100 ug/mL after 7 days by resazurin reduction test; assay type: functional; conditions: ATCC 19420, 168 h
Escherichia coli [24] = experiment: Antibacterial activity against Escherichia coli […] assessed as growth inhibition after 16 to 18 hr by serial plate dilution method; assay type: functional
Staphylococcus aureus [25] = experiment: Antibacterial activity against Staphylococcus aureus ATCC 25923 assessed as growth inhibition after 16 to 18 hr by serial plate dilution method; assay type: functional
[26] = test system: Mycobacterium tuberculosis; experiment: Antitubercular activity against Mycobacterium tuberculosis H37Rv ATCC 27294 assessed as growth inhibition at 1 to 100 ug/mL after 7 days by resazurin reduction test; assay type: functional; conditions: for MIC: Mycobacterium tuberculosis, H37Rv ATCC 27294, 168 h

Cn1cc(CCC(=O)NCc2cn(C)c3ccc(Cl)cc23)c2cc(Cl)ccc21
diameter of the inhibition zone (DIZ) (Aspergillus flavus [1]): <10 mm
MIC [2]: 10 µg/mL (≈ 24.1 µM)
diameter of the inhibition zone (DIZ) (Escherichia coli [3]): 11 mm
diameter of the inhibition zone (DIZ) (Aspergillus fumigatus [4]): <10 mm
MIC (Aspergillus flavus [5]): 25 µg/mL (≈ 60.3 µM)
MIC (Talaromyces marneffei [6]): 12.5 µg/mL (≈ 30.2 µM)
MIC [7]: 10 µg/mL (≈ 24.1 µM)
MIC [8]: 10 µg/mL (≈ 24.1 µM)
MIC (Klebsiella pneumoniae [9]): 12.5 µg/mL (≈ 30.2 µM)
MIC (Aspergillus fumigatus [10]): 25 µg/mL (≈ 60.3 µM)
MIC (Pseudomonas aeruginosa [11]): 12.5 µg/mL (≈ 30.2 µM)
MIC [12]: 10 µg/mL (≈ 24.1 µM)
MIC [13]: 25 µg/mL (≈ 60.3 µM)
diameter of the inhibition zone (DIZ) (Talaromyces marneffei [14]): 11 mm
diameter of the inhibition zone (DIZ) (Streptococcus pyogenes [15]): <10 mm
diameter of the inhibition zone (DIZ) [16]: <10 mm
diameter of the inhibition zone (DIZ) (Staphylococcus aureus [17]): <10 mm
MIC (Candida albicans [18]): 25 µg/mL (≈ 60.3 µM)
diameter of the inhibition zone (DIZ) (Candida albicans [19]): <10 mm
diameter of the inhibition zone (DIZ) (Pseudomonas aeruginosa [20]): 11 mm
MIC (Streptococcus pyogenes [21]): 25 µg/mL (≈ 60.3 µM)
diameter of the inhibition zone (DIZ) (Klebsiella pneumoniae [22]): 11 mm
MIC [23]: > 100 µg/mL
MIC (Escherichia coli [24]): 12.5 µg/mL (≈ 30.2 µM)
MIC (Staphylococcus aureus [25]): 25 µg/mL (≈ 60.3 µM)
growth inhibition (GI) [26]: <90%
MIC [26]: > 100 µg/mL

O=C(CCc1c[nH]c2ccc(Cl)cc12)NCc1c[nH]c2ccc(Cl)cc12
diameter of the inhibition zone (DIZ) (Aspergillus flavus [1]): <10 mm
MIC [2]: 0.625 µg/mL (≈ 1.62 µM)
diameter of the inhibition zone (DIZ) (Escherichia coli [3]): 16 mm
diameter of the inhibition zone (DIZ) (Aspergillus fumigatus [4]): 16 mm
MIC (Aspergillus flavus [5]): 25 µg/mL (≈ 64.7 µM)
MIC (Talaromyces marneffei [6]): 25 µg/mL (≈ 64.7 µM)
MIC [7]: 10 µg/mL (≈ 25.9 µM)
MIC [8]: 1.25 µg/mL (≈ 3.24 µM)
MIC (Klebsiella pneumoniae [9]): 6.25 µg/mL (≈ 16.2 µM)
MIC (Aspergillus fumigatus [10]): 6.25 µg/mL (≈ 16.2 µM)
MIC (Pseudomonas aeruginosa [11]): 6.25 µg/mL (≈ 16.2 µM)
MIC [12]: 10 µg/mL (≈ 25.9 µM)
MIC [13]: 6.25 µg/mL (≈ 16.2 µM)
diameter of the inhibition zone (DIZ) (Talaromyces marneffei [14]): <10 mm
diameter of the inhibition zone (DIZ) (Streptococcus pyogenes [15]): 11 mm
diameter of the inhibition zone (DIZ) [16]: 16 mm
diameter of the inhibition zone (DIZ) (Staphylococcus aureus [17]): 16 mm
MIC (Candida albicans [18]): 25 µg/mL (≈ 64.7 µM)
diameter of the inhibition zone (DIZ) (Candida albicans [19]): <10 mm
diameter of the inhibition zone (DIZ) (Pseudomonas aeruginosa [20]): 16 mm
MIC (Streptococcus pyogenes [21]): 12.5 µg/mL (≈ 32.4 µM)
diameter of the inhibition zone (DIZ) (Klebsiella pneumoniae [22]): 16 mm
MIC [23]: 1 µg/mL (≈ 2.59 µM)
MIC (Escherichia coli [24]): 6.25 µg/mL (≈ 16.2 µM)
MIC (Staphylococcus aureus [25]): 6.25 µg/mL (≈ 16.2 µM)
growth inhibition (GI) [26]: 90%
MIC [26]: 1 µg/mL (≈ 2.59 µM)

Cc1[nH]c2ccc(OC(F)(F)F)cc2c1CNC(=O)CCc1cn(C)c2ccc(Cl)cc12
diameter of the inhibition zone (DIZ) (Aspergillus flavus [1]): <10 mm
MIC [2]: 1.25 µg/mL (≈ 2.69 µM)
diameter of the inhibition zone (DIZ) (Escherichia coli [3]): 16 mm
diameter of the inhibition zone (DIZ) (Aspergillus fumigatus [4]): <10 mm
MIC (Aspergillus flavus [5]): 25 µg/mL (≈ 53.9 µM)
MIC (Talaromyces marneffei [6]): 25 µg/mL (≈ 53.9 µM)
MIC [7]: 10 µg/mL (≈ 21.6 µM)
MIC [8]: 1.25 µg/mL (≈ 2.69 µM)
MIC (Klebsiella pneumoniae [9]): 6.25 µg/mL (≈ 13.5 µM)
MIC (Aspergillus fumigatus [10]): 25 µg/mL (≈ 53.9 µM)
MIC (Pseudomonas aeruginosa [11]): 25 µg/mL (≈ 53.9 µM)
MIC [12]: 1.25 µg/mL (≈ 2.69 µM)
MIC [13]: 25 µg/mL (≈ 53.9 µM)
diameter of the inhibition zone (DIZ) (Talaromyces marneffei [14]): <10 mm
diameter of the inhibition zone (DIZ) (Streptococcus pyogenes [15]): 11 mm
diameter of the inhibition zone (DIZ) [16]: <10 mm
diameter of the inhibition zone (DIZ) (Staphylococcus aureus [17]): <10 mm
MIC (Candida albicans [18]): 12.5 µg/mL (≈ 26.9 µM)
diameter of the inhibition zone (DIZ) (Candida albicans [19]): 11 mm
diameter of the inhibition zone (DIZ) (Pseudomonas aeruginosa [20]): <10 mm
MIC (Streptococcus pyogenes [21]): 12.5 µg/mL (≈ 26.9 µM)
diameter of the inhibition zone (DIZ) (Klebsiella pneumoniae [22]): 16 mm
MIC [23]: 1 µg/mL (≈ 2.16 µM)
MIC (Escherichia coli [24]): 6.25 µg/mL (≈ 13.5 µM)
MIC (Staphylococcus aureus [25]): 25 µg/mL (≈ 53.9 µM)
growth inhibition (GI) [26]: 90%
MIC [26]: 1 µg/mL (≈ 2.16 µM)
